Data set [1] has as its system human cervical carcinoma HeLa cells. Nature of the data set: Cytotoxicity by spectrophotometric MTT method on HeLa cells. In kind it is cell-based. To be noted: for IC50: MTT. The method, then: (§1) The human cervical carcinoma HeLa cells were used as a model for testing the cytotoxicity of new compounds. Said cells grow as single-layer culture in nutrient Dulbecco's modified Eagle's medium (DMEM, Gibco Life Technologies, Grand Island, USA) with 10% of fetal bovine serum (Gibco) and antibiotics (penicillin 100 U, streptomicine 0.1 mg, Sigma Chem. Co., St. Louis, USA). They were grown in thermostat at 37° C. with 5% CO2 in a humidified atmosphere in plastic cell culture flasks (BD Falcon, Germany).
The compounds were dissolved in dimethyl sulfoxide (Merck, Darmstadt, Germany) in concentrations of 20-120 mM (depending on the compound) and stored in aliquots at −20° C. as stock solutions. The stock solutions were diluted to the appropriate concentrations just before the experiments.
(§2) The cytotoxicity of new compounds was determined by spectrophotometric MTT method (Michisch et al., Urol Res 18(990)131). It is a colorimetric method based on the ability of living cells to reduce the yellow tetrazolium salt 3-(4,5-dimethylthiazol-2-yl)-2,5-diphenyltetrazolium bromide) (MTT; Merck) to violet formazane crystals using mitochondrial dehydrogenase and cytochrome b and c. The crystals were dissolved in dimethyl sulfoxide (DMSO), followed by spectrophotometric measurement of their absorbance at 545 nm.
Cells were seeded in 96-well microtitration plates (BD Falcon) (2.5×10^3/180 μl), and incubated overnight at temperature of 37° C. to allow the cells to attach to the growth medium. Next day the compounds were added to the growth medium in a wide range of concentrations, from 0.05 to 100 μM (each concentration in quadruplicate). After 72 hours, the samples were coloured with the MTT dye and left for 3 hours in the thermostat. Formed crystals were dissolved in dimethyl sulfoxide and the absorbance of each sample was measured at 545 nm. The survival of cells was calculated according to the formula: […]
The experiments were repeated 2-3 times. […] IC50 values were read from the curve. IC50 is the concentration of a compound that reduces the survival of treated cells to 50%.
The cytotoxicity of the new compounds was determined on human cervical carcinoma HeLa cells by the spectrophotometric MTT method. It is expressed as IC50 value, i.e. as the concentration of a compound that reduces cell survival to 50%.
On the technique in general: Formazan colour is commonly taken as a measure of viable cells.

The subject of data set [2] is mammalian cells. To be noted: from publication, read-out: cytotoxicity IC50; cited from earlier work.
The subject of data set [3] is laryngeal carcinoma HEp-2 cells. The data set is described as follows: Cytotoxicity by MTT method on HEp-2 cells. Format: cell-based.
Data set [4] relates to HeLa CK cells resistant to cisplatin and cross-resistant to vincristine and methotrexate. Nature of the data set: Cytotoxicity by MTT method on HeLa CK resistant sub-line. In kind it is cell-based, human. To be noted: Table 3. The method, then: as §2
Cells were seeded in 96-well microtitration plates (BD Falcon) (2.5×10^3/180 μl), and incubated overnight at temperature of 37° C. to allow the cells to attach to the growth medium. Next day the compounds were added to the growth medium in a wide range of concentrations, from 0.05 to 100 μM (each concentration in quadruplicate). […] Formed crystals were dissolved in dimethyl sulfoxide and the absorbance of each sample was measured at 545 nm. The survival of cells was calculated according to the formula: […]
(§3) The experiments were repeated 2-3 times. […] IC50 values were read from the curve. […]
It was tested on parental cervical carcinoma HeLa cells and their sub-line HeLa CK cells resistant to cisplatin and cross-resistant to vincristine and methotrexate (Osmak and Eljuga, Res Exp Med 193(1993) 389). […] Cytotoxicity was determined by spectrophotometric MTT method and expressed as IC50.

Data set [5] concerns glioblastoma A1235 cells. Nature of the data set: Cytotoxicity by MTT method on A1235 cells. Format: cell-based. To be noted: Table 2.
For data set [6], the system named is normal human cells, keratinocytes. Nature of the data set: Cytotoxicity on keratinocytes, survival by crystal violet dye. In kind it is cell-based. To be noted: Table 2. The method, then:
as §1
The compounds were dissolved in dimethyl sulfoxide (Merck, Darmstadt, Germany) in concentrations of 20-120 mM (depending on the compound) and stored in aliquots at −20° C. as stock solutions. […]
Cells were seeded in 96-well microtitration plates (BD Falcon) (2.5×10^3/180 μl), and incubated overnight at temperature of 37° C. to allow the cells to attach to the growth medium. […] Formed crystals were dissolved in dimethyl sulfoxide and the absorbance of each sample was measured at 545 nm. The survival of cells was calculated according to the formula: […]
as §3
The cytotoxicity was determined by spectrophotometric MTT method (except for keratinocytes, which have low metabolic activity, so their survival was determined by addition of crystal violet dye) and expressed as IC50.

The test system of data set [7] is rhabdomiosarcoma RD cells. The data set is described as follows: Cytotoxicity by MTT method on RD cells. Format: cell-based. To be noted: Table 2.
For data set [8], the system named is human embryonic kidney HEK 293 cells. Nature of the data set: Cytotoxicity by MTT method on HEK 293 cells. In kind it is cell-based. To be noted: HEK 293, MTT; Table 2.
Data set [9] relates to human ovarian adenocarcinoma OVCAR cells. The data set is described as follows: Cytotoxicity by MTT method on OVCAR cells. In kind it is cell-based. To be noted: Table 2.
For data set [10], the system named is CA3 cells resistant to cisplatin and cross-resistant to vincristine, methotrexate and mitomycin C. Nature of the data set: Cytotoxicity by MTT method on CA3 resistant sub-line. Format: cell-based. To be noted: Table 3.
The mark [11] stands for this setting: HeLa cells, 72 hours, Table 1, read-out: Cytotoxicity (IC50 μM).

Molecules are shown by their SMILES. Like-named read-outs stand apart in the source and are kept apart here. A value given as a limit tells only on which side of the number the result lay.

One may read the IC50 as the midpoint of a concentration-inhibition curve. For the molecule `O=[N+]([O-])c1ccc(N=NNc2ccc([N+](=O)[O-])cc2Br)c(Br)c1` [VM-97], the IC50 in data set [1] (setting [11]) is 0.45 µM.

For `N=C(N)c1ccc(N=NNc2ccc(C(=N)N)cc2)cc1` [berenil, Berenil], the IC50 in data set [2] was > 100 µM.

Turning to `O=[N+]([O-])c1ccc(N=NNc2ccc([N+](=O)[O-])cc2)cc1` [1,3-bis(4-nitrophenyl)triazene], the biological activity entry in [1] (tested during the testing of the compounds of the invention) is “did not show any biological activity”.

For `O=[N+]([O-])c1ccc(N=NNc2ccc([N+](=O)[O-])cc2Br)c(Br)c1` [VM-94c], the IC50 stood at 5.5 µM in data set [3] (HEp2 parental cells, MTT, Table 3); 5.5 µM in [3] (HEp-2, MTT, Table 2); 3.9 µM in data set [4]; 5.45 µM in data set [5]; 9.45 µM in [6]; 5.1 µM in [7]. The IC50 in data set [8] was determined as 7.9 µM; in data set [1] (HeLa cells, 72 hours, Table 1, listed as VM 94c, read-out: Cytotoxicity (IC50 μM)), 3.65 µM; in data set [1] (HeLa parental cells, Table 3, read-out: IC50), 3.4 µM; in [1] (HeLa, Table 2, read-out: IC50), 3.65 µM; in data set [9] it was 3.4 µM; in data set [10], 7.2 µM.

For `O=[N+]([O-])c1ccc(N=NNc2ccc([N+](=O)[O-])cc2Cl)c(Cl)c1` [VM-102], the 50% inhibitory concentration (IC50) in [1] (setting [11]) turned out to be 2.6 µM.

The values are drawn from patent US8217022B2, “Analogues of 1,3-bis(4-nitrophenyl)triazenes, their pharmaceutically acceptable salts and N-acyl derivatives for tumour treatment” (Rudjer Boskovic Institute, priority 2009, dated 2012).
